Ends that are not written are not given here.

Test [1] relates to P. aeruginosa and S. aureus biofilms. The conditions noted are these: cited from earlier work.
The subject of test [2] is P. aeruginosa PA14 mutS mutator strain and populations evolved from it. The test can be described thus: MIC by broth microdilution (CLSI), mutator ancestor and mutator-derived evolved populations. In kind it is cell-based. The note with it: FIG. 3A, mutS-derived populations and clones from WT ancestor, p<0.05 one-way ANOVA. As to the method:
Phenotypic characterization: antimicrobial susceptibility and aggregation assay: The MIC to WLBU2 (SEQ ID NO: 1) and polymyxin B of the whole populations and 4 clones were determined by broth microdilution according to the Clinical and Laboratory Standards Instituted guidelines (CLSI 2019), in which each bacterial sample was tested in 2-fold increasing concentrations of each antibiotic. WLBU2 (SEQ ID NO: 1) was provided by Peptilogics (Peptilogics, Pittsburgh, PA) and polymyxin B was provided by Alfa Aesar (Alfa Aesar, Wardhill, Mass.). The experiments were performed with three replicates of the antibiotics.
(In general: In broth dilution the organism is exposed to a series of concentrations in liquid medium.)

The subject of test [3] is P. aeruginosa (PA14 mutS:T114P). Briefly: Experimental evolution with hypermutator ancestor, population survival. Format: cell-based. An excerpt:
In the second experiment, 5 planktonic populations and 5 biofilm populations under the same conditions described above, and a mutator strain of P. aeruginosa (PA14 mutS:T114P), obtained from Flynn et al. (“Evolution of Ecological Diversity in Biofilms of Pseudomonas aeruginosa by Altered Cyclic Diguanylate Signaling.” J. Bacteriol., 2016, 198:2608-2618). Additionally, 3 planktonic populations and 3 biofilm populations of the hypermutant strain in the absence of antibiotic (e.g., WLBU2 (SEQ ID NO: 1)) pressure were propagated. Hypermutant strains of bacteria, such as P. aeruginosa, can develop in patients, and may be characterized as having increased mutation rates, e.g., up to 1,000-fold, as compared to wild-type bacteria, such as P. aeruginosa (see, e.g., Maciá, Maria D et al. “Hypermutation is a key factor in development of multiple-antimicrobial resistance in Pseudomonas aeruginosa strains causing chronic lung infections.” Antimicrobial agents and chemotherapy vol. 49, 8 (2005): 3382-6).
(§1) The planktonic propagations were serially passaged through 50 uL into 5 mL of M9+(dilution factor 100) which corresponds to approximately 6.66 generations per day. For the biofilm populations, a polystyrene bead (Polysciences, Inc., Warrington, PA) was transferred to fresh media containing 3 sterile beads. Each bead was rinsed in phosphate buffered saline (PBS) before the transfer to reduce the transfer planktonic cells. Each day, black and white marked beads were alternated, ensuring that the bacteria were growing on the bead for 24 hours, which corresponds to 6 to 7.5 generations/day.
Increasing mutation supply by using hypermutator strain promotes evolution resistance: A method to increase mutation supply during evolution experiments was to use an ancestral strain with a higher mutation rate. These mutator genotypes commonly evolve during chronic infections of P. aeruginosa and therefore relevant to antimicrobial resistance (AMR) evolution. […]

In test [4] the test system is ESKAPE (Enterococcus faecium, Staphylococcus aureus, Klebsiella pneumoniae, Acinetobacter baumannii, Pseudomonas aeruginosa and Enterobacter spp.) pathogens. The conditions noted are these: in vitro and in vivo, even when protected by biofilms; cited from earlier work.
The subject of test [5] is P. aeruginosa PA14 resistant clones (Sm, Wr, Sc). Briefly: Aggregation assay of resistant clones. In kind it is cell-based. The conditions noted are these: presence (4 μg/ml) versus absence of WLBU2, settled 24 hours at 4° C. As to the method:
To determine the aggregation ability of the 4 clones selected in the subinhibitory experiment, two replicates (R1 and R2) of each clone and the ancestral strain were grown in 5 mL of M9^+ for 24 hours at 37 degrees Celsius (° C.) in a roller drum at 200 revolutions per minute (RPM). After 24 hours, the whole culture of each clone was transferred to a 13 mm glass tube, and the tubes were allowed to settle over 24 hours at 4° C. without shaking. Replicate 1 (R1) of each clone was vortexed for 30 seconds and the optical density at 600 nanometers (OD600) was measured. From R2, 200 μl of the upper fraction was carefully taken without vortexing and the OD600 was measured. The aggregation percentage was estimated as […]. This experiment was performed with five replicates both in the absence and presence (4 μg/ml) of WLBU2 (SEQ ID NO: 1).

In test [6] the test system is A. baumannii ATCC 17978. The test can be described thus: Experimental evolution in increasing antibiotic concentrations, population survival. Format: cell-based. Here is the method:
Experimental evolution: Three independent evolution experiments were conducted. The ancestor strains were propagated in a rich medium modified from M9 (“M9+”) containing 0.37 millmolar (mM) CaCl2), 8.7 mM MgSO4, 42.2 mM Na2HPO4, 22 mM KH2PO4, 21.7 mM NaCl, 18.7 mM NH4Cl and 0.2 grams per liter (g/L) glucose and supplemented with 20 milliliters per liter (mL/L) MEM essential amino acids (Gibco 11130051), 10 mL/L MEM nonessential amino acids (Gibco 11140050), and 10 mL each trace mineral solution A, B, and C (Corning 25021-3Cl).
In the first experiment, a single clone of A. baumannii ATCC 17978 and P. aeruginosa PA14 were selected and propagated independently for 24 hours in M9^+ in the absence of antibiotics. Each population was then sub-cultured into 10 replicate populations. Ten of the populations (5 planktonic and 5 biofilm) were propagated every 24 hours in increasing concentrations of WLBU2 (SEQ ID NO: 1) starting at 0.5× the minimum inhibitory concentration (MIC). The WLBU2 (SEQ ID NO: 1) was doubled after 72 hours until no population survived the treatment. As a control, the same number of strains were propagated (both planktonically and in biofilm) in the absence of antibiotics (e.g., WLBU2 (SEQ ID NO: 1)). Ten populations (5 planktonic and 5 biofilm) were propagated in increasing convention of the cationic peptide polymyxin B. […]
(§2) For identifying mechanisms of resistance to WLBU2 (SEQ ID NO: 1), laboratory strains of A. baumannii ATCC 17978 and P. aeruginosa PA14 that had no prior exposure to WLBU2 (SEQ ID NO: 1) were propagated. […] Two factors that increase the likelihood of developing resistance were determined to be: i) the mutation supply determined by population size and the mutation rate and ii) the strength of selection imposed by the antibiotic. […] In Table 2, the mean mutations per nucleotide and the cumulative probability of a mutation per nucleotide knowing the mutation rate was calculated using the length of the chromosome, the number of divisions/days, and the length of the exposure before facing inhibitory concentrations of antibiotic (WLBU2 (SEQ ID NO: 1)). […]

Test [7] has as its system P. aeruginosa PA14. Briefly: Experimental evolution in increasing WLBU2 concentrations (previously used protocol), population survival. Format: cell-based. As to the method:
Experimental evolution: Three independent evolution experiments were conducted. The ancestor strains were propagated in a rich medium modified from M9 (“M9+”) containing 0.37 millmolar (mM) CaCl2), 8.7 mM MgSO4, 42.2 mM Na2HPO4, 22 mM KH2PO4, 21.7 mM NaCl, 18.7 mM NH4Cl and 0.2 grams per liter (g/L) glucose and supplemented with 20 milliliters per liter (mL/L) MEM essential amino acids (Gibco 11130051), 10 mL/L MEM nonessential amino acids (Gibco 11140050), and 10 mL each trace mineral solution A, B, and C (Corning 25021-3Cl). […]
as §2

In test [8] the test system is wild-type P. aeruginosa PA14. Briefly: Experimental evolution with extended subinhibitory exposure, population survival. In kind it is cell-based. As to the method: In the third experiment, 5 planktonic populations of the non-hypermutant laboratorial strain P. aeruginosa PA14 were propagated under subinhibitory concentrations of WLBU2 (SEQ ID NO: 1) for 10 days. The populations that survived the treatment with 1×MIC of WLBU2 (SEQ ID NO: 1) were propagated for 2 days.
as §1
Five planktonic populations of wild-type P. aeruginosa PA14 was propagated for 10 days under subinhibitory concentrations of WLBU2 (SEQ ID NO: 1), followed by 2 days at inhibitory concentrations. It was estimated the probability that any given nucleotide would be mutated during this regime was 0.74, with mean mutations per site of 1.52. […] Different colony morphologies were also detected within each population at the end of the experiment. […]

Setting [9] is: five mutator populations per lifestyle.
Where [10] appears, read: planktonic and biofilm, 3 days at 0.5x MIC before the MIC.

As for RRWVRRVRRVWRRVVRVVRRWVRR [WLBU2], in test [1], the activity against biofilms result is given as “high activity”. The “resistance level (MIC) of evolved populations versus WT” value in test [2] was “significantly exceeded WT resistance”. Further, the “biofilm populations that survived the treatment” value in test [3] (setting [9]) is given as “three”. Further, the “planktonic populations that survived the treatment” value in test [3] (setting [9]) is recorded as “Two”. Also, the “Populations that survived entire experiment (%)” value is given as 50% in test [3] (hypermutator ancestor PA14 mutS: T114P, 3 days before inhibitory concentrations); 0% in test [7] (previously used protocol, strain PA14, 3 days before inhibitory concentrations); 40% in test [8] (extended subinhibitory exposure, strain PA14, 10 days subinhibitory then 2 days inhibitory). Besides, the “effectiveness against ESKAPE pathogens” value in test [4] is “highly effective”. Moreover, the “aggregation of Sm colonies relative to WT” value in test [5] was “only clustered more in the presence of the peptide”. Also, the “populations that survived exposure of the MIC” value in test [6] (setting [10]) and in test [7] (setting [10]) was “no populations” in each case. The “populations that survived the prolonged subinhibitory treatment” value in test [8] (five planktonic populations, 10 days subinhibitory then 2 days inhibitory) was “two”.

With polymyxin B, the “biofilm populations that survived in 4-times the MIC” value in test [6] (biofilm lifestyle, increasing concentrations over 12 days) is “four out of the five”. In addition, the “planktonic populations that survived in 4-times the MIC” value in test [6] (planktonic lifestyle, 5 populations, increasing concentrations over 12 days) is listed as “all”.

Source of the values: patent US12371463B2, “Methods and compositions for treatment of antibiotic-resistant bacterial infections” (University of Pittsburgh—Of the Commonwealth System of …, priority 2021, dated 2025).
